The values that follow come from US20240002374A1, “5-MEMBERED HETEROARYLAMINOSULFONAMIDES FOR TREATING CONDITIONS MEDIATED BY DEFICIENT CFTR ACTIVITY” (Genzyme Corporation, priority 2019, published 2024).

In the assay the target is T1, CFTR (primary human bronchial epithelial cells from a ΔF508 homozygous CF donor, CF-HBE cells) (Homo sapiens, UniProt P13569, DEL508-508).
T1 construct: Primary human bronchial epithelial cells from a ΔF508 homozygous CF donor; host or cells: primary human bronchial epithelial cells (CF-HBE) from a ΔF508 homozygous CF donor
T1 sequence (P13569 with tags, fused parts or gaps DEL508-508): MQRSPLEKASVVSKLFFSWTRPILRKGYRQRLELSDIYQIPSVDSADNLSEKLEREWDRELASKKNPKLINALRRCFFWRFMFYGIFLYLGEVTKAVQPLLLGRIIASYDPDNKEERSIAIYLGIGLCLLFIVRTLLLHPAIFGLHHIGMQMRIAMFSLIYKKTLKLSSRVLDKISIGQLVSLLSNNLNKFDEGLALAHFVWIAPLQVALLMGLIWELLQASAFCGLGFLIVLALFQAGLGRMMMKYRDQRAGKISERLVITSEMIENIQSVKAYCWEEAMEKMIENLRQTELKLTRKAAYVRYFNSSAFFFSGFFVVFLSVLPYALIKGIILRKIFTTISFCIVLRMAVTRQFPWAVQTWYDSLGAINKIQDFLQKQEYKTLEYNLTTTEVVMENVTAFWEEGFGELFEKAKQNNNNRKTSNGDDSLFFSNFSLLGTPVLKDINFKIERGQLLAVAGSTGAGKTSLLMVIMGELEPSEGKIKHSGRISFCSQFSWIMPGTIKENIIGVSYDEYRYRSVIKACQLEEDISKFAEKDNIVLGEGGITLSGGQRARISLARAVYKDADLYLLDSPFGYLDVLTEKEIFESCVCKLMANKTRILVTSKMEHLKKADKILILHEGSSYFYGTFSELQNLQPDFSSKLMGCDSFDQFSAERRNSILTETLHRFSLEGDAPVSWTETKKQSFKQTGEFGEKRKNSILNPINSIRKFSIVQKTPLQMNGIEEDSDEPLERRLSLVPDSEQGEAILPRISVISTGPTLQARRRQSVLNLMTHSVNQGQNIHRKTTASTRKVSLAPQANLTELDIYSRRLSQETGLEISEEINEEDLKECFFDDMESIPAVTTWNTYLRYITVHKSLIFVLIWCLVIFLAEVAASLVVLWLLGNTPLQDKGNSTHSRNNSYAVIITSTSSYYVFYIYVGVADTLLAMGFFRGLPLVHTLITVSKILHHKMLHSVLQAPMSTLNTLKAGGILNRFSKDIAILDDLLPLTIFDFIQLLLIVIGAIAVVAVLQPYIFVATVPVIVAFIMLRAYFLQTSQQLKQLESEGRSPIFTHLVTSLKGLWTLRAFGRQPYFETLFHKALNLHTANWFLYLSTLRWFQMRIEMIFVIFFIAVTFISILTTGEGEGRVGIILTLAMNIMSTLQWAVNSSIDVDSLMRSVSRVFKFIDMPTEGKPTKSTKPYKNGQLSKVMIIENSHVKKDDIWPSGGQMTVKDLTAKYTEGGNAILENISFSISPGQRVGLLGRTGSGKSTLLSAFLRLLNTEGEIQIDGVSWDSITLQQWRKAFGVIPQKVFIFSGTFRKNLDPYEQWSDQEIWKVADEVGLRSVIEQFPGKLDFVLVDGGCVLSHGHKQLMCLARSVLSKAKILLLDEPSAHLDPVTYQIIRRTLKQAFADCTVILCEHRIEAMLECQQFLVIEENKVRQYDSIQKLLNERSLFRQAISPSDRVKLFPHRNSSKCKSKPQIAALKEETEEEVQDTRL
The assay can be described thus: TECC24 recording of CFTR-mediated transepithelial chloride transport (TECC24 AUC fold over DMSO @ 3 μM). To be noted: 3 uM test agent; CF-HBE cells (ΔF508 homozygous) incubated 48 h; ratio of test agent AUC of forskolin-stimulated IEQ to vehicle (DMSO) AUC. It counts as cell-based. On the procedure: Example 510: TECC24 AUC Fold Over DMSO @ 3 μM
The effects of a test agent on CFTR-mediated transepithelial chloride transport was measured using TECC24 recording analysis. Test agents were solubilized in DMSO. Solubilized test agents were mixed with incubation medium containing DMEM/F12, Ultroser G (2%; Crescent Chemical, catalog #67042), Hyclone Fetal Clone H (2%; GE Healthcare, catalog #SH30066.02), bovine brain extract (0.25%; Lonza, catalog #CC-4098), insulin (2.5 μg/mL), IL-13 (10 ng/mL), hydrocortisone (20 nM), transferrin (2.5 μg/mL), triiodothyronine (500 nM), ethanolamine (250 nM), epinephrine (1.5 μM), phosphoethanolamine (250 nM), and retinoic acid (10 nM). Primary human bronchial epithelial cells from a ΔF508 homozygous CF donor (CF-HBE cells; from University of North Carolina Cystic Fibrosis Tissue Procurement Center), grown on Transwell HTS 24-well cell culture inserts (Costar, catalog #3378), were exposed to test agents or controls dissolved in incubation medium. The CF-HBE cells were cultured at 36.5° C. for 48 h before TECC24 recordings were performed in the presence or absence of test agent, a positive control or vehicle (DMSO).
Following incubation, the transwell cell culture inserts containing the test agent or control-treated CF-HBE cells were loaded onto a TECC24 apparatus (TECC v7 or MTECC v2; EP Design) to record the transepithelial voltage (VT) and resistance (TEER) using 4 AgCl electrodes per well configured in current-clamp mode. The apical and basolateral bath solutions both contained (in mM) 140 NaCl, 5 KCl, 2 CaCl2), 1 MgCl2, 10 Hepes, and 10 glucose (adjusted to pH 7.4 with NaOH) […]. To inhibit basal Na+ absorption, the ENaC inhibitor benzamil (10 μM) was added to the bath. Then, the adenylate cyclase activator, forskolin (10 μM), was added to the bath to activate CFTR. The forskolin-stimulated Cl− transport was halted by addition of bumetanide (20 μM), an inhibitor of the basolateral chloride co-transporter NKCC1, to the bath to confirm that the detected signal was chloride dependent. VT and TEER recordings were digitally acquired at routine intervals using TECC or MTECC software (EP Design). VT and TEER were transformed into equivalent transepithelial Cl− current (IEQ), and the Area Under the Curve (AUC) of the IEQ time course between forskolin and bumetanide addition is generated using Excel (Microsoft). Efficacy is expressed as the ratio of the test agent AUC divided by vehicle AUC. EC50s based on AUC are generated using the non-linear regression log(agonist) vs. response function in Prism software (GraphPad) with Hill Slope fixed=1.
If a test agent increased the AUC of the forskolin-stimulated IEQ relative to vehicle in CF-HBE cells, and this increase was inhibited by bumetanide, then the test agent was considered a CFTR corrector.
With `CC(C)Oc1cc(Cl)ccc1-c1nc(NS(=O)(=O)c2ccccc2)sc1-c1ccc(OC(F)F)c(OCCC(C)(C)C)c1` [Example 380, N-[4-(4-chloro-2-propan-2-yloxyphenyl)-5-[4-(difluoromethoxy)-3-(3,3-dimethylbutoxy)phenyl]-1,3-thiazol-2-yl]benzenesulfonamide], the “TECC AUC vs. DMSO @ 3 uM” value is recorded as “A (“A” refers to AUC > 5)”.

Regarding `Cc1cccc(C(F)(F)F)c1-c1nc(NS(=O)(=O)c2ccnc(N)c2)sc1-c1cc(F)cc(OCCC(C)(C)C)c1` [Example 15, 2-Amino-N-(5-(3-(3,3-dimethylbutoxy)-5-fluorophenyl)-4-(2-methyl-6-(trifluoromethyl)phenyl)thiazol-2-yl)pyridine-4-sulfonamide], the “TECC AUC vs. DMSO @ 3 uM” value was “A (“A” refers to AUC > 5)”. With `CC(C)c1ccccc1-c1nc(NS(=O)(=O)c2ccccc2)sc1-c1cc(F)cc(OCCC(C)(C)C)c1` [Example 3, N-(5-(3-(3,3-Dimethylbutoxy)-5-fluorophenyl)-4-(2-isopropylphenyl)thiazol-2-yl)benzenesulfonamide], the “TECC AUC vs. DMSO @ 3 uM” value is given as “A (“A” refers to AUC > 5)”. With `Cc1cccc(C)c1-c1nc(NS(=O)(=O)c2cccc(-n3cccn3)c2)sc1-c1cccc(OC2CCC(C)(C)C2)c1` (stereo not drawn) [Example 28, N-(5-(3-((3,3-Dimethylcyclopentyl)oxy)phenyl)-4-(2,6-dimethylphenyl)thiazol-2-yl)-3-(1H-pyrazol-1-yl)benzenesulfonamide] the entry was “A (“A” refers to AUC > 5)”; with `CC(C)c1ccccc1-c1nc(NS(=O)(=O)c2cccc(NC(C)C(F)(F)F)c2)sc1-n1ccc(OCC(C)(C)C(F)(F)F)n1` (stereo not drawn) [Example 471, N-[4-(2-propan-2-ylphenyl)-5-[3-(3,3,3-trifluoro-2,2-dimethylpropoxy)pyrazol-1-yl]-1,3-thiazol-2-yl]-3-(1,1,1-trifluoropropan-2-ylamino)benzenesulfonamide], “B (“B” refers to AUC 2-5)”; with `CC(C)(C)CCOc1cccc(-c2sc(NS(=O)(=O)c3cccc(N)c3)nc2-c2ccc(C(F)(F)F)cc2)c1` [Example 10, 3-Amino-N-(5-(3-(3,3-dimethylbutoxy)phenyl)-4-(4-(trifluoromethyl)phenyl)thiazol-2-yl)benzenesulfonamide], “A (“A” refers to AUC > 5)”. In the case of `Cc1cccc(C)c1-c1nc(NS(=O)(=O)c2cccc(S(C)(=O)=O)c2)sc1-c1cc(F)cc(OCCC(C)(C)C)c1` [Example 242, N-[5-[3-(3,3-dimethylbutoxy)-5-fluorophenyl]-4-(2,6-dimethylphenyl)-1,3-thiazol-2-yl]-3-methylsulfonylbenzenesulfonamide], the “TECC AUC vs. DMSO @ 3 uM” value is reported as “A (“A” refers to AUC > 5)”. With `CC(C)Oc1cc(Cl)ccc1-c1nc(NS(=O)(=O)c2cccc(N)c2F)sc1-c1cccc(OCC(F)(F)C(C)(C)C)c1` [Example 382] the entry was “A (“A” refers to AUC > 5)”. In the case of `Cc1cccc(C)c1-c1nc(NS(=O)(=O)c2ccnc(N)c2)sc1N1CCOC(CCCC(C)(C)C)C1` (stereo not drawn) [Example 37, 2-Amino-N-(5-(2-(4,4-dimethylpentyl)morpholino)-4-(2,6-dimethylphenyl)thiazol-2-yl)pyridine-4-sulfonamide], the “TECC AUC vs. DMSO @ 3 uM” value was “A (“A” refers to AUC > 5)”.

For `Cc1cccc(C)c1-c1nc(NS(=O)(=O)c2ccccc2)sc1C1=CC(CC(C)(C)C)OCC1` (stereo not drawn) [Example 370, N-[4-(2,6-dimethylphenyl)-5-[6-(2,2-dimethylpropyl)-3,6-dihydro-2H-pyran-4-yl]-1,3-thiazol-2-yl]benzenesulfonamide], the “TECC AUC vs. DMSO @ 3 uM” value is on record as “A (“A” refers to AUC > 5)”. With `Cc1cccc(C)c1-c1nc(NS(=O)(=O)c2cccc(N(C)C)n2)sc1-c1cccc(OCCC(C)(C)C)c1` [Example 334, 6-(dimethylamino)-N-[5-[3-(3,3-dimethylbutoxy)phenyl]-4-(2,6-dimethylphenyl)-1,3-thiazol-2-yl]pyridine-2-sulfonamide] the entry was “A (“A” refers to AUC > 5)”; with `Cc1cccc(C)c1-c1nc(NS(=O)(=O)c2cc(N)ccc2F)sc1-c1ccc(F)c(OCC(C)(C)C(F)(F)F)c1` [Example 12, 5-Amino-N-(4-(2,6-dimethylphenyl)-5-(4-fluoro-3-(3,3,3-trifluoro-2,2-dimethylpropoxy)phenyl)thiazol-2-yl)-2-fluorobenzenesulfonamide], “A (“A” refers to AUC > 5)”. `Cc1cccc(C)c1-c1nc(NS(=O)(=O)c2cccc(-c3ccn[nH]3)c2)sc1-c1cccc(OC2CCC(C)(C)C2)c1` (stereo not drawn) [Example 29, N-(5-(3-((3,3-Dimethylcyclopentyl)oxy)phenyl)-4-(2,6-dimethylphenyl)thiazol-2-yl)-3-(1H-pyrazol-5-yl)benzenesulfonamide]: the “TECC AUC vs. DMSO @ 3 uM” value is given as “A (“A” refers to AUC > 5)”. On to `Cc1cccc(C)c1-c1nc(NS(=O)(=O)c2ccccc2)sc1-c1cccc(OCCC(C)(C)C)c1` [Example 16, N-(5-(3-(3,3-Dimethylbutoxy)phenyl)-4-(2,6-dimethylphenyl)thiazol-2-yl)benzenesulfonamide], for which the “TECC AUC vs. DMSO @ 3 uM” value is “A (“A” refers to AUC > 5)”. For `CC(C)c1ccccc1-c1nc(NS(=O)(=O)c2cccc(N)c2F)sc1-c1cccc([C@@H]2CC[C@@H](OC(F)(F)F)C2)c1` [Example 48B2, 3-Amino-2-fluoro-N-(4-(2-isopropylphenyl)-5-(3-((1R,3R)-3-(trifluoromethoxy)cyclopentyl)phenyl)thiazol-2-yl)benzenesulfonamide] the value was “B (“B” refers to AUC 2-5)”; for `CC(C)c1ccccc1-c1nc(NS(=O)(=O)c2cccc(N)c2)sc1-c1cc(F)cc(OCCC(C)(C)C)c1` [Example 11, 3-Amino-N-(5-(3-(3,3-dimethylbutoxy)-5-fluorophenyl)-4-(2-isopropylphenyl)thiazol-2-yl)benzenesulfonamide], “A (“A” refers to AUC > 5)”.

In the case of `Cc1nn(C)cc1S(=O)(=O)Nc1nc(-c2ccccc2C(C)C)c(-c2cccc([C@H]3CC[C@H](OC(F)(F)F)C3)c2)s1` [Example 46A2, N-(4-(2-Isopropylphenyl)-5-(3-((1S,3S)-3-(trifluoromethoxy)cyclopentyl)phenyl)thiazol-2-yl)-1,3-dimethyl-1H-pyrazole-4-sulfonamide], the “TECC AUC vs. DMSO @ 3 uM” value is “B (“B” refers to AUC 2-5)”.

Turning to `CC(C)c1ccccc1-c1nc(NS(=O)(=O)c2cccc(N)c2F)sc1-c1cccc(OCC(F)(F)C(C)(C)C)c1` [Example 23, 3-Amino-N-(5-(3-(2,2-difluoro-3,3-dimethylbutoxy)phenyl)-4-(2-isopropylphenyl)thiazol-2-yl)-2-fluorobenzenesulfonamide], the “TECC AUC vs. DMSO @ 3 uM” value is on record as “A (“A” refers to AUC > 5)”.

In the case of `CC(C)c1ccccc1-c1nc(NS(=O)(=O)c2cccc(N)c2F)sc1N1CCOC2(CCC(C)(C)C2)C1` (stereo not drawn) [Example 39, 3-Amino-N-(5-(2,2-dimethyl-6-oxa-9-azaspiro[4.5]decan-9-yl)-4-(2-isopropylphenyl)thiazol-2-yl)-2-fluorobenzenesulfonamide], the “TECC AUC vs. DMSO @ 3 uM” value is given as “B (“B” refers to AUC 2-5)”. Turning to `Cc1cccc(C)c1-c1nc(NS(=O)(=O)c2cccc(N(C)C)n2)sc1-c1cccc(C2CCC(C)(C)C2)c1` (stereo not drawn) [Example 342, 6-(dimethylamino)-N-[5-[3-(3,3-dimethylcyclopentyl)phenyl]-4-(2,6-dimethylphenyl)-1,3-thiazol-2-yl]pyridine-2-sulfonamide], the “TECC AUC vs. DMSO @ 3 uM” value is listed as “A (“A” refers to AUC > 5)”. For `Cc1cccc(C)c1-c1nc(NS(=O)(=O)c2ccccc2)sc1-c1cc(F)cc(OCCC(C)(C)C)c1` [Example 17, N-(5-(3-(3,3-Dimethylbutoxy)-5-fluorophenyl)-4-(2,6-dimethylphenyl)thiazol-2-yl)benzenesulfonamide] the value was “B (“B” refers to AUC 2-5)”.
